In ChEMBL document CHEMBL1132010, “In vivo anti-HIV activity of (+)-calanolide A in the hollow fiber mouse model” (Bioorg Med Chem Lett, 1999):

Legend:
[1] = tested on: Mus musculus; assay: Compound dose required to produce significant anti-HIV activity in mice after i.p. administration, given twice daily (q12h); assay type: functional
[2] = Compound dose that was proved to be lethally toxic to mice (q12h); assay type: ADME; settings: mouse, in vivo
[3] = tested on: Mus musculus; assay: Compound dose required to produce significant anti-HIV activity in mice after oral administration, given twice daily (q12h); assay type: functional
[4] = Compound dose that was proved to be lethally toxic to mice (q24h); assay type: ADME; settings: mouse, in vivo
[5] = tested on: Mus musculus; assay: Compound dose (dosing schedule - q8h) that prevented a decrease in RT activity and p24 antigen production without increase in cell viability in mice.* dose was found to be toxic; assay type: functional
[6] = tested on: Mus musculus; assay: Compound dose (dosing schedule - q8h) that produced a decrease in RT activity without protection against decreased cell viability in mice; assay type: functional

**Q.** Which results are given for `CCCc1cc(=O)oc2c3c(c4c(c12)OC(C)(C)C=C4)O[C@H](C)[C@@H](C)[C@@H]3O` [CALANOLIDE A]?
**A.** Dose [1]: 200 mg/kg; Toxic [2]: 200 mg/kg; Dose [3]: 150 mg/kg; Toxic [4]: 300 mg/kg; Dose [5]: 150 mg/kg; Dose [6]: 100 mg/kg
